In US4590193A, “3-(2-(4-phenylpiperazinylethyl)anilino)-isobenzofuranones, their method of preparation and their use as antihypertensive and antiallergic drugs” (Societe Cortial, S.A., priority 1982, dated 1986):
One block for each compound: values may come before it.

Experiments:
[1] = tested on: cutaneous passive anaphylaxis; assay: Antiallergic activity: cutaneous passive anaphylaxis; format: in vivo, Sprague Dawley rats; settings: po; per os, rat, reduction of Evans blue diffused
Experimental: The antiallergic activity has been determined in Sprague Dawley rats by the test for cutaneous passive anaphylaxis. Anaphylaxis is induced by the intradermal administration of a serum rich in IgE, followed 24 hours later by the intravenous injection of a solution containing ovalbumin and Evans blue. The activity of the products to be tested, administered per os, is estimated as the percentage of reduction in the amount of Evans blue having diffused at the injection point. Table VI provides the ED50 expressed in mg/kg of certain products of this invention.

[2] = tested on: cutaneous reactions induced by histamine; assay: Cutaneous reactions induced by histamine; format: in vivo, rats; settings: oral, rat
Experimental: (§1) The products of this invention were administered orally to rats in the model of the cutaneous reactions. These reactions were induced by intradermal administration of histamine, serotonin, or the 48/80 compound. The activity of these products is expressed as the percentage of reduction in the amount of blue dye having diffused at the injection point, and the obtained values for ED50 expressed in mg/kg are given in Table VI.

[3] = tested on: contractions induced by serotonin on an isolated guinea pig ileum; assay: In vitro antiserotonin activity: inhibition of serotonin-induced contractions of isolated guinea pig ileum; format: cell-based; settings: Cavia porcellus, serotonin 5.10^-7 g/ml
[4] = tested on: motility; assay: Effect on motility in mice (actimeter), sedative; format: in vivo; settings: Mus musculus, oral, read-out: ED50 as a sedative (motility)
Experimental: (§2) When administered orally to spontaneously hypertensive rats at a rate of 50 mg/kg every 12 hours for five days, COR 34 41 causes a drop in the AP. The AP becomes stable at the end of the treatment, at a value of about 18 mm Hg below its initial value. The effect on motility when giving the present substances orally to mice, was tested by using an actimeter.

[5] = tested on: cutaneous reactions induced by serotonin; assay: Cutaneous reactions induced by serotonin; format: in vivo, rats; settings: oral, rat
Experimental: as §1

[6] = target: T1, contractions induced by histamine on a guinea pig ileum (Cavia porcellus, UniProt P31389); assay: In vitro antihistamine activity: inhibition of histamine-induced contractions of guinea pig ileum; format: cell-based; settings: for Kb: competitive antagonism of histamine, read-out: pA2 (converted); for IC50: histamine 10^-8 g/l
T1 construct: on a guinea pig ileum; from tissue; host or cells: isolated guinea pig ileum
T1 sequence (P31389 whole entry): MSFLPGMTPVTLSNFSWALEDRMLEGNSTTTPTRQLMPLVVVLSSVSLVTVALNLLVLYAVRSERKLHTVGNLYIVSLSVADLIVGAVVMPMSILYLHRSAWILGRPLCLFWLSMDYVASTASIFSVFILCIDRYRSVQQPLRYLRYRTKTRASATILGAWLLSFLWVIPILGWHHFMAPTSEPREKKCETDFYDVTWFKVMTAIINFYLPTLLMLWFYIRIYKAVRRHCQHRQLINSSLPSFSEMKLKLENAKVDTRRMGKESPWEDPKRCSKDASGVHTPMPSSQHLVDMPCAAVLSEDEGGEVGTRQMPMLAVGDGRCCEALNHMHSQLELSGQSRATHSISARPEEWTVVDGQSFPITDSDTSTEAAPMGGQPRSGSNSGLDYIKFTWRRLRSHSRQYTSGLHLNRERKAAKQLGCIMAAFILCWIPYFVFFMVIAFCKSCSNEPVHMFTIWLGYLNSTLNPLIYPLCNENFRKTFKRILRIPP
Experimental: The antagonist is administered at the same time as the agonist or before. In the latter case, the time of contact between the antagonist and the organ isolated before the introduction of the agonist is shown in Table III.

[7] = tested on: bronchospasm induced by a 0.3% histamine aerosol; assay: In vivo antihistamine activity: bronchospasm induced by histamine aerosol in awake guinea pig; settings: 10 mg/kg oral in Tween
Experimental: The in vivo antihistamine activity is determined in the awake guinea pig by testing the bronchospasm induced by a 0.3% histamine aerosol. The antihistaminic activity of the present products is tested upon their oral administration in Tween.

[8] = tested on: cutaneous reactions induced by the 48/80 compound; assay: Cutaneous reactions induced by 48/80 compound; format: in vivo, rats; settings: oral, rat
Experimental: as §1

[9] = Oral toxicity (mortality), intragastric administration; settings: mouse, in vivo, read-out: percentage of mortality
Experimental: (§3) The mortality induced by these substances was determined by using Swiss mice which were free of specific pathogenic organisms. The animals were kept in an air conditioned room for 24 to 48 hours prior to the beginning of the experiments. The substances were solubilized in Tween and administered either intragastrically or intraperitoneally.

[10] = Intraperitoneal toxicity (mortality, LD50); settings: mouse, in vivo, ip; for mortality: read-out: percentage of mortality; for LD50: Bliss method
Experimental: as §3

[11] = tested on: spontaneously hypertensive awake rat; assay: Antihypertensive activity in spontaneously hypertensive awake rat, oral; format: in vivo
Experimental: In the spontaneously hypertensive awake rat the compound COR 34 41 causes a drop in AP of 18.8% at 25 mg/kg per os, and it causes a drop in AP of 19.3% at 50 mg/kg. The AP returns to normal at the end of an hour, at a dosage of 25 mg/kg, and at the end of 5 hours with a dosage of 50 mg/kg.
The compound COR 34 42 causes a AP drop of 15.6% at a dose of 50 mg/kg per os. The AP returns to normal at the end of 5 hours.

[12] = tested on: spontaneously hypertensive rats; assay: Antihypertensive activity in spontaneously hypertensive rats, repeated oral administration; format: in vivo, rat; settings: 50 mg/kg orally every 12 hours for five days
Experimental: as §2

[13] = tested on: Swiss mice; settings: 14 days of observation; 20 wt. % "Tween" solution; range of lethal doses 946-1459; cited from earlier work
[14] = no time of contact printed (antagonist given at the same time as agonist)

SMILES: O=C1OC(Nc2ccccc2CCN2CCN(c3ccccc3)CC2)c2ccccc21 (stereo not drawn) [COR 34 30, 3-(2-(4-phenylpiperazinylethyl)anilino)-isobenzofuranone]
ED50 [1]: 3.8 mg/kg | ED50 [2]: 12.1 mg/kg | IC50 ([3]; time of contact 5 mm): 9.33 µM | ED50 [4]: ~50 mg/kg | ED50 [5]: 13.2 mg/kg | Kb [6]: 20.4 nM | IC50 [6, 14]: 1040 nM | % of animals protected at 1 h [7]: 60% | % of animals protected at 6 h [7]: 40% | ED50 [8]: 11.2 mg/kg | mortality ([9]; 1000 mg/kg): 0% | mortality ([9]; 2000 mg/kg): 0% | mortality ([9]; 3000 mg/kg): 10% | mortality ([10]; 100 mg/kg): 0% | mortality ([10]; 200 mg/kg): 10% | mortality ([10]; 300 mg/kg): 0% | mortality ([10]; 500 mg/kg): 0%

SMILES: O=C1OC(Nc2ccccc2CCN2CCN(c3ccc(F)cc3)CC2)c2ccccc21 (stereo not drawn) [COR 34 37, 3-(2-(4-fluorophenylpiperazinylethyl)anilino)isobenzofuranone]
ED50 [1]: 6.4 mg/kg | ED50 [2]: 9.3 mg/kg | IC50 ([3]; time of contact 5 mm): 22.7 µM | ED50 [5]: 7.9 mg/kg | Kb [6]: 13.8 nM | IC50 ([6]; time of contact 3 mm): 15.5 nM | % of animals protected at 1 h [7]: 70% | % of animals protected at 6 h [7]: 70% | ED50 [8]: 9.4 mg/kg | mortality ([9]; 750 mg/kg): 0% | mortality ([9]; 1000 mg/kg): 10% | mortality ([9]; 2000 mg/kg): 50% | mortality ([10]; 500 mg/kg): 20% | mortality ([10]; 1000 mg/kg): 60%

SMILES: COc1ccccc1N1CCN(CCc2ccccc2NC2OC(=O)c3ccccc32)CC1 (stereo not drawn) [COR 34 41]
ED50 [1]: 4.1 mg/kg | AP returns to normal at the end of ([11]; 25 mg/kg per os): an hour | drop in AP ([11]; 25 mg/kg per os): 18.8% | AP returns to normal at the end of ([11]; 50 mg/kg per os): 5 h | drop in AP ([11]; 50 mg/kg per os): 19.3% | ED50 [2]: 7.9 mg/kg | AP below its initial value at the end of the treatment [12]: about 18 mm Hg | IC50 ([3]; time of contact 15 mm): 12.6 µM | ED50 [5]: 14 mg/kg | Kb [6]: 9.33 nM | IC50 ([6]; time of contact 10 mm): 31.1 nM | % of animals protected at 1 h [7]: 90% | % of animals protected at 6 h [7]: 60% | ED50 [8]: 10.9 mg/kg | mortality ([9]; 750 mg/kg): 0% | mortality ([9]; 1000 mg/kg): 10% | mortality ([9]; 2000 mg/kg): 10% | mortality ([10]; 400 mg/kg): 0% | mortality ([10]; 500 mg/kg): 25% | mortality ([10]; 800 mg/kg): 35% | mortality ([10]; 900 mg/kg): 50% | mortality ([10]; 1000 mg/kg): 70% | LD50 [10]: 873 mg/kg

SMILES: COc1ccc2c(c1OC)C(=O)OC2Nc1ccccc1CCN1CCN(c2ccc(Cl)cc2)CC1 (stereo not drawn) [COR 34 42, 3-(2-(4-p-chlorophenylpiperazinylethyl)-aniline)-6,7-dimethoxyisobenzofuranone]
ED50 [1]: 14.8 mg/kg | AP returns to normal at the end of ([11]; 50 mg/kg per os): 5 h | drop in AP ([11]; 50 mg/kg per os): 15.6% | ED50 [4]: 10 mg/kg | IC50 ([6]; time of contact 5 mm): 33 nM | mortality ([9]; 1000 mg/kg): 0% | mortality ([9]; 2000 mg/kg): 0%

SMILES: COc1ccc2c(c1OC)C(=O)OC2Nc1ccccc1CCN1CCN(c2ccc(F)cc2)CC1 (stereo not drawn) [COR 34 43, 6,7-dimethoxy-3-(2-(4-p-fluorophenylpiperazinylethyl)-anilino)isobenzofuranone]
ED50 [1]: 6.6 mg/kg | ED50 [2]: 9.1 mg/kg | IC50 ([3]; time of contact 3 mm): 20.5 µM | ED50 [5]: 17.1 mg/kg | Kb [6]: 10.7 nM | IC50 [6, 14]: 3530 nM | % of animals protected at 1 h [7]: 90% | % of animals protected at 6 h [7]: 50% | ED50 [8]: 11.1 mg/kg | mortality ([9]; 1000 mg/kg): 0% | mortality ([9]; 2000 mg/kg): 0% | mortality ([10]; 500 mg/kg): 0% | mortality ([10]; 800 mg/kg): 0% | mortality ([10]; 1000 mg/kg): 0%

SMILES: COc1ccc2c(c1OC)C(=O)OC2Nc1ccccc1CCN1CCN(c2ccccc2)CC1 (stereo not drawn) [COR 34 47, 6,7-dimethoxy-3-(2-(4-phenylpiperazinylethyl)anilino)isobenzofuranone]
IC50 ([3]; time of contact 3 mm): 19.7 µM | IC50 ([6]; time of contact 3 mm): 29 nM | % of animals protected at 1 h [7]: 20% | % of animals protected at 6 h [7]: 0% | mortality ([9]; 1000 mg/kg): 0% | mortality ([9]; 2000 mg/kg): 0% | mortality ([10]; 500 mg/kg): 0% | mortality ([10]; 1000 mg/kg): 0%

SMILES: COc1ccc2c(c1OC)C(=O)OC2Nc1ccccc1CCN1CCN(c2ccccc2C)CC1 (stereo not drawn) [COR 34 48]
IC50 ([3]; time of contact 5 mm): 6.46 µM | ED50 [4]: 9 mg/kg | IC50 ([6]; time of contact 5 mm): 55 nM | % of animals protected at 1 h [7]: 40% | % of animals protected at 6 h [7]: 10% | mortality ([9]; 1000 mg/kg): 0% | mortality ([9]; 2000 mg/kg): 0% | mortality ([10]; 500 mg/kg): 0% | mortality ([10]; 1000 mg/kg): 0%

SMILES: Cc1ccccc1N1CCN(CCc2ccccc2NC2OC(=O)c3ccccc32)CC1 (stereo not drawn) [COR 34 49, 3-(2-(4-(2-methylphenyl)piperazinylethyl)-aniline)isobenzofuranone]
ED50 [4]: 18 mg/kg | IC50 ([6]; time of contact 10 mm): 80 nM | % of animals protected at 1 h [7]: 30% | % of animals protected at 6 h [7]: 20% | mortality ([9]; 1000 mg/kg): 0% | mortality ([9]; 2000 mg/kg): 0% | mortality ([10]; 500 mg/kg): 0% | mortality ([10]; 1000 mg/kg): 20%

SMILES: COc1ccc(N2CCN(CCc3ccccc3NC3OC(=O)c4ccccc43)CC2)cc1 (stereo not drawn) [COR 34 53, 3-(2-(4-methoxyphenylpiperazinylethyl)anilino)isobenzofuranone]
IC50 ([6]; time of contact 5 mm): ~1500 nM | mortality ([9]; 1000 mg/kg): 0% | mortality ([9]; 2000 mg/kg): 20% | mortality ([10]; 500 mg/kg): 60% | mortality ([10]; 1000 mg/kg): 100% | LD50 [10]: 500 mg/kg

IC50 ([3]; time of contact 3 mm): 0.444 µM
SMILES: CC(CN1c2ccccc2Sc2ccccc21)N(C)C (stereo not drawn) [Promethazine, reference compound]

SMILES: Nc1ccccc1CCN1CCN(c2ccccc2)CC1 [product of Example 1, 2-(4-phenylpiperazinylethyl)aniline]
LD50 [13]: 1175 mg/kg
